The target in one experiment is SMARCA2 (Homo sapiens, UniProt P51531). Put plainly: HiBit assay in engineered HT1080 CRISPR knock-in cell, 6 hrs (B series), SMARCA2. It is filed as cell-based. The conditions noted are these: 6 hrs incubation; for DC50: read-out: SMARC A2 HT1080 HiBit DC50; for Dmax: HT-1080, HT1080 CRISPR knock-in cells, read-out: SMARC A2 HT1080 HiBit Dmax (%). In a few lines:
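Remaining SMARCA2 protein measured as HiBiT luminescence after cell lysis with LgBiT plus lytic substrate. Engineered HT1080 knock-in cells (2000/well) were first treated 6 h at 37 °C with compound at a final 0.1% DMSO.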
Background: The HiBiT peptide binds its large partner to form an active luciferase.

The next experiment has as its target SMARCA4 (Homo sapiens, UniProt P51532). Briefly: HiBit assay in engineered HT1080 CRISPR knock-in cell, 6 hrs (B series), SMARCA4. The class given is cell-based. To be noted: 6 hrs incubation; for DC50: read-out: SMARC A4 HT1080 HiBit DC50; for Dmax: HT-1080, HT1080 CRISPR knock-in cells, read-out: SMARC A4 HT1080 HiBit Dmax(%). In a few lines: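 Protein abundance is measured in HiBiT-tagged HT1080 CRISPR knock-in cells after a 6 hr compound treatment (0.1% DMSO) by lytic Nano-Glo HiBiT luminescence.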

Bounds are passed on as bounds.

SMARCA2, sequence (P51531 whole entry): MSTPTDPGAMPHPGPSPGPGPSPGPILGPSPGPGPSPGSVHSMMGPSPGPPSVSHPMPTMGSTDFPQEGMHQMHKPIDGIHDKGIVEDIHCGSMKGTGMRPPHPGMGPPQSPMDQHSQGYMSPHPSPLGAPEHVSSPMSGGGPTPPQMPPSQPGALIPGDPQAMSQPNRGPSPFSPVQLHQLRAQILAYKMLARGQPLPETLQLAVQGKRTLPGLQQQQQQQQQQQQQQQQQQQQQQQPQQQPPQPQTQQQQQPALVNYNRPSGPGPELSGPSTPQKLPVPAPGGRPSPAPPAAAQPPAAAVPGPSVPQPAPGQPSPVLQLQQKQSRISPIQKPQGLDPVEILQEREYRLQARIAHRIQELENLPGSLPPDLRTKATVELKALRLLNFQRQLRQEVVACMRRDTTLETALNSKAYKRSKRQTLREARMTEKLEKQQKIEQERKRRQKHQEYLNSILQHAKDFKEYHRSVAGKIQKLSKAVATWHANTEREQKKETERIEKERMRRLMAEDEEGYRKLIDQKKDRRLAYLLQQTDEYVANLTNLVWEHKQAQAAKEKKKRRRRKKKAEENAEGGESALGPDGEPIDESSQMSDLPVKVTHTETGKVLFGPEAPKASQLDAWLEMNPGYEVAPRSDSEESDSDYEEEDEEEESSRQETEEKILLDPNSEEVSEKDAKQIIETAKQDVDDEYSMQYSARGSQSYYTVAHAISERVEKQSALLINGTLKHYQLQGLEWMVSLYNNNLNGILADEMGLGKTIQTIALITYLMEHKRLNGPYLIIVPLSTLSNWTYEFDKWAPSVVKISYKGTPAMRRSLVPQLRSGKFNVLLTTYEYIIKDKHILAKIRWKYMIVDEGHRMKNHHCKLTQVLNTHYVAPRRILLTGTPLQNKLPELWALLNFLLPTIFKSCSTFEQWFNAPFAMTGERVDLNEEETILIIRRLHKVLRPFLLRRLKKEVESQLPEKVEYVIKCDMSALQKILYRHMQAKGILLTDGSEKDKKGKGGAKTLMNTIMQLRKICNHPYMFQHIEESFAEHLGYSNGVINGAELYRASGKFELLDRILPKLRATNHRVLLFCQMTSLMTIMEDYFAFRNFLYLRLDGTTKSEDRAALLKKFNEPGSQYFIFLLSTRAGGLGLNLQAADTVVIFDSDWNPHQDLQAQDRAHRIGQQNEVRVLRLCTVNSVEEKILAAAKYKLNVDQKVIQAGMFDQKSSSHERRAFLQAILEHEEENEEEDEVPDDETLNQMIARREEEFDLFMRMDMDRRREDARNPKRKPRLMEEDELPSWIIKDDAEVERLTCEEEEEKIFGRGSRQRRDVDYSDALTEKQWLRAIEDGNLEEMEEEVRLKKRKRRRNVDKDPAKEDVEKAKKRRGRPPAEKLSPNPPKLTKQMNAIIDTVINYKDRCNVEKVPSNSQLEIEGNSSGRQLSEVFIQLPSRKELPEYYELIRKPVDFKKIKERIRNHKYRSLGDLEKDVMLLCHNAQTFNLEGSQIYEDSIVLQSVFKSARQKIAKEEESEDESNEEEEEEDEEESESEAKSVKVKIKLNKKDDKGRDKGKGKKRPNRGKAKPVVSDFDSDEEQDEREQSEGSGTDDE
SMARCA4, sequence (P51532 whole entry): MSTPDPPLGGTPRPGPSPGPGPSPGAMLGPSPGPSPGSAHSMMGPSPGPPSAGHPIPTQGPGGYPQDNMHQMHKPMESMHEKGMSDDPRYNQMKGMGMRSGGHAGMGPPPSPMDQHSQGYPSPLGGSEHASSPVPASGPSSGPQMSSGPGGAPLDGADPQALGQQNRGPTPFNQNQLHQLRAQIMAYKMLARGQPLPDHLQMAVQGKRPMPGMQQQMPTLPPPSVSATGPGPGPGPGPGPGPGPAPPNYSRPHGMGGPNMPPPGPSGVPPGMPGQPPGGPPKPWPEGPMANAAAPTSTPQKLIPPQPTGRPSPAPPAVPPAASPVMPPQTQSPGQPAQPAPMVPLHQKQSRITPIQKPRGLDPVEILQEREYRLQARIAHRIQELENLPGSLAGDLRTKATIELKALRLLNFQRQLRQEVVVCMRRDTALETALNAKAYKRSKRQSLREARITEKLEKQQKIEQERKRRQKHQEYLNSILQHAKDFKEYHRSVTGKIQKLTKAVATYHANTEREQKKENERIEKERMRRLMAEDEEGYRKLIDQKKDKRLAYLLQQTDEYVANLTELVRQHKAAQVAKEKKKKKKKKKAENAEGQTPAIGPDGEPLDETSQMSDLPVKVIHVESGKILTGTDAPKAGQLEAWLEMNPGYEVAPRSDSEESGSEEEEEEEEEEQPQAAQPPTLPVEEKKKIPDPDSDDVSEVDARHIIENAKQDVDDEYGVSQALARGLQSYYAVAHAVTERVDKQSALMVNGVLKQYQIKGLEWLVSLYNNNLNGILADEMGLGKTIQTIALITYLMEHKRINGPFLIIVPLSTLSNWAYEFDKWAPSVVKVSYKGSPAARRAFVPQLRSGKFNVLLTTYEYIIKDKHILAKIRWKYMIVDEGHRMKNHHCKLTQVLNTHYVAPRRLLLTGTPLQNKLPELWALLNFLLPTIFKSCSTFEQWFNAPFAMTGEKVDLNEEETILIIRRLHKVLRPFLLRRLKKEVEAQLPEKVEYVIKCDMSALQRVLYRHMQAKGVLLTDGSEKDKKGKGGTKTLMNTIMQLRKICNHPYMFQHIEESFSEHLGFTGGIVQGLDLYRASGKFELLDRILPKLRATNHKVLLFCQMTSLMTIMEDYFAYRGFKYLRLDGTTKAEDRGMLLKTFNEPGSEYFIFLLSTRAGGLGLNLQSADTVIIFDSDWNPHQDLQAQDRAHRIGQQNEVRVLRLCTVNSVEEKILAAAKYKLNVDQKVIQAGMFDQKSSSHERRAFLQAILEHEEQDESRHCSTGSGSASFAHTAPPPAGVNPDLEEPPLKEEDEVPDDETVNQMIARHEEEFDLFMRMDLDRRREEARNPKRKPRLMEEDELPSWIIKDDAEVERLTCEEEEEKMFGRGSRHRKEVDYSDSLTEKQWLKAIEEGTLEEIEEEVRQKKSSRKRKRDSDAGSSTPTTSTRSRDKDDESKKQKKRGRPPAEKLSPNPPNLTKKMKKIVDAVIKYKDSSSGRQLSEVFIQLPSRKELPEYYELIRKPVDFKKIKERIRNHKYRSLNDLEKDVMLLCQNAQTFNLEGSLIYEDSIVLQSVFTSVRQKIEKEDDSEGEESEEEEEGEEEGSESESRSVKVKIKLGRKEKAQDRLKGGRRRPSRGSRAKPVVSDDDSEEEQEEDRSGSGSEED

For the compound `Cc1ncsc1-c1ccc([C@H](C)NC(=O)[C@@H]2C[C@@H](O)CN2C(=O)[C@@H](c2cc(OCCn3cc(-c4ccc5c(c4)C(C)(C)c4nc(=O)c6c(Cl)cccc6n4-5)cn3)no2)C(C)C)cc1` [Compound B52, (2S,4R)-1-((R)-2-(3-(2-(4-(4-chloro-7,7-dimethyl-5-oxo-5,7-dihydroindolo[1,2-a]quinazolin-9-yl)-1H-pyrazol-1-yl)ethoxy)isoxazol-5-yl)-3-methylbutanoyl)-4-hydroxy-N-((S)-1-(4-(4-methylthiazol-5-yl)phenyl)ethyl)pyrrolidine-2-carboxamide], the DC50 on SMARCA2 (HT1080 CRISPR knock-in cells) is less than 100 nM; on SMARCA4 (HT1080 CRISPR knock-in cells), greater than 1000 nM. In addition, the Dmax at SMARCA2 is 70 to 90%; at SMARCA4, less than 50%.

Turning to `Cc1ncsc1-c1ccc([C@H](CC(=O)NCC2CCC(N3CCC(c4ccc5c(c4)-n4c(nc(=O)c6c(Cl)cccc64)C5(C)C)CC3)CC2)NC(=O)[C@@H]2C[C@@H](O)CN2C(=O)[C@@H](NC(=O)C2(F)CC2)C(C)(C)C)cc1` (stereo partly drawn) [Compound B53, (2S,4R)-N-((S)-3-(((4-(4-(4-chloro-7,7-dimethyl-5-oxo-5,7-dihydroindolo[1,2-a]quinazolin-10-yl)piperidin-1-yl)cyclohexyl)methyl)amino)-1-(4-(4-methylthiazol-5-yl)phenyl)-3-oxopropyl)-1-((S)-2-(1-fluorocyclopropane-1-carboxamido)-3,3-dimethylbutanoyl)-4-hydroxypyrrolidine-2-carboxamide], the DC50 on SMARCA2 (HT1080 CRISPR knock-in cells) and at SMARCA4 (HT1080 CRISPR knock-in cells) was 100 to 500 nM throughout. For the same compound, the Dmax is 70 to 90% at SMARCA2 and 50 to 69% on SMARCA4.

Turning to `Cc1ncsc1-c1ccc([C@H](CC(=O)NCC2CCC(N3CCC(c4ccc5c(c4)-n4c(nc(=O)c6c(Cl)cccc64)C5(C)C)CC3)CC2)NC(=O)[C@@H]2C[C@@H](O)CN2C(=O)[C@@H](NC(=O)C2(F)CC2)C(C)(C)C)cc1` (stereo partly drawn) [Compound B54, (2S,4R)-N-((S)-3-(((4-(4-(4-chloro-7,7-dimethyl-5-oxo-5,7-dihydroindolo[1,2-a]quinazolin-10-yl)piperidin-1-yl)cyclohexyl)methyl)amino)-1-(4-(4-methylthiazol-5-yl)phenyl)-3-oxopropyl)-1-((S)-2-(1-fluorocyclopropane-1-carboxamido)-3,3-dimethylbutanoyl)-4-hydroxypyrrolidine-2-carboxamide], on SMARCA2 (HT1080 CRISPR knock-in cells), the “SMARC A2 HT1080 HiBit Dmax (%)” value is on record as “D (D (<50% degradation))” and the DC50 fell in the range of 100 to 500 nM. Further, on SMARCA4 (HT1080 CRISPR knock-in cells), the “SMARC A4 HT1080 HiBit Dmax(%)” value was “D (D (<50% degradation))” and the DC50 lay in the range of 100 to 500 nM.

For `Cc1ncsc1-c1ccc([C@H](CCCCCn2cc(-c3ccc4c(c3)C(C)(C)c3nc(=O)c5c(Cl)cccc5n3-4)cn2)NC(=O)[C@@H]2C[C@@H](O)CN2C(=O)[C@@H](NC(=O)C2(F)CC2)C(C)(C)C)cc1` [Compound B56, (2S,4R)—N—((S)-6-(4-(4-chloro-7,7-dimethyl-5-oxo-5,7-dihydroindolo[1,2-a]quinazolin-9-yl)-1H-pyrazol-1-yl)-1-(4-(4-methylthiazol-5-yl)phenyl)hexyl)-1-((S)-2-(1-fluorocyclopropane-1-carboxamido)-3,3-dimethylbutanoyl)-4-hydroxypyrrolidine-2-carboxamide], the DC50 at SMARCA2 (HT1080 CRISPR knock-in cells) is 100 to 500 nM; on SMARCA4 (HT1080 CRISPR knock-in cells) it was greater than 1000 nM. The Dmax at SMARCA2 and at SMARCA4 was less than 50% throughout.

Consider `Cc1ncsc1-c1ccc([C@H](C)NC(=O)[C@@H]2C[C@@H](O)CN2C(=O)[C@H](C(C)C)n2cc(OCCN3CCC(c4ccc5c(c4)C(C)(C)c4nc(=O)c6c(Cl)cccc6n4-5)CC3)cn2)cc1` [Compound B57, (2S,4R)-1-(2-(4-(2-(4-(4-chloro-7,7-dimethyl-5-oxo-5,7-dihydroindolo[1,2-a]quinazolin-9-yl)piperidin-1-yl)ethoxy)-1H-pyrazol-1-yl)-3-methylbutanoyl)-4-hydroxy-N—((S)-1-(4-(4-methylthiazol-5-yl)phenyl)ethyl)pyrrolidine-2-carboxamide], for which the results for the DC50 on SMARCA2 (HT1080 CRISPR knock-in cells) and at SMARCA4 (HT1080 CRISPR knock-in cells) were 100 to 500 nM and 501 to 1000 nM, respectively. Moreover, the results for the Dmax at SMARCA2 and on SMARCA4 were 70 to 90% and less than 50%, respectively.

For the compound `Cc1ncsc1-c1ccc([C@H](C)NC(=O)[C@@H]2C[C@@H](O)CN2C(=O)[C@H](C(C)C)n2cc(CCCN3CCC(c4ccc5c(c4)-n4c(nc(=O)c6c(Cl)cccc64)C5(C)C)CC3)nn2)cc1` [Compound B58, (2S,4R)-1-((S)-2-(4-(3-(4-(4-chloro-7,7-dimethyl-5-oxo-5,7-dihydroindolo[1,2-a]quinazolin-10-yl)piperidin-1-yl)propyl)-1H-1,2,3-triazol-1-yl)-3-methylbutanoyl)-4-hydroxy-N-((S)-1-(4-(4-methylthiazol-5-yl)phenyl)ethyl)pyrrolidine-2-carboxamide], the DC50 at SMARCA2 (HT1080 CRISPR knock-in cells) and at SMARCA4 (HT1080 CRISPR knock-in cells) was less than 100 nM each time. For the same compound, the Dmax was greater than 90% at SMARCA2 and 70 to 90% on SMARCA4.

For `CNC(=O)[C@@H]1C[C@@H](O)CN1C(=O)[C@H](C(C)C)n1cc([C@H]2CC[C@H](CN3CCC(c4ccc5c(c4)-n4c(nc(=O)c6c(Cl)cccc64)C5(C)C)CC3)CC2)nn1` [Compound B59, (2S,4R)-1-((S)-2-(4-((1r,4S)-4-((4-(4-chloro-7,7-dimethyl-5-oxo-5,7-dihydroindolo[1,2-a]quinazolin-10-yl)piperidin-1-yl)methyl)cyclohexyl)-1H-1,2,3-triazol-1-yl)-3-methylbutanoyl)-4-hydroxy-N-methylpyrrolidine-2-carboxamide], the DC50 on SMARCA2 (HT1080 CRISPR knock-in cells) is 100 to 500 nM; on SMARCA4 (HT1080 CRISPR knock-in cells), greater than 1000 nM. The figures for the Dmax at SMARCA2 and on SMARCA4 were 50 to 69% and less than 50%, respectively.

As for `Cc1ncsc1-c1ccc([C@H](C)NC(=O)[C@@H]2C[C@@H](O)CN2C(=O)[C@@H](c2cc(OCCn3cc(-c4ccc5c(c4)-n4c(nc(=O)c6c(Cl)cccc64)C5(C)C)cn3)no2)C(C)C)cc1` [Compound B60, (2S,4R)-1-(2-(3-(2-(4-(4-chloro-7,7-dimethyl-5-oxo-5,7-dihydroindolo[1,2-a]quinazolin-10-yl)-1H-pyrazol-1-yl)ethoxy)isoxazol-5-yl)-3-methylbutanoyl)-4-hydroxy-N-((S)-1-(4-(4-methylthiazol-5-yl)phenyl)ethyl)pyrrolidine-2-carboxamide], the DC50 at SMARCA2 (HT1080 CRISPR knock-in cells) and at SMARCA4 (HT1080 CRISPR knock-in cells) was less than 100 nM each time. The Dmax at SMARCA2 and on SMARCA4 was less than 50% in each case.

For the compound `Cc1ncsc1-c1ccc([C@H](C)NC(=O)[C@@H]2C[C@@H](O)CN2C(=O)[C@H](C(C)C)n2cc(CCCCCN3CCC(c4ccc5c(c4)-n4c(nc(=O)c6c(Cl)cccc64)C5(C)C)CC3)nn2)cc1` [Compound B61, (2S,4R)-1-((S)-2-(4-(5-(4-(4-chloro-7,7-dimethyl-5-oxo-5,7-dihydroindolo[1,2-a]quinazolin-10-yl)piperidin-1-yl)pentyl)-1H-1,2,3-triazol-1-yl)-3-methylbutanoyl)-4-hydroxy-N-((S)-1-(4-(4-methylthiazol-5-yl)phenyl)ethyl)pyrrolidine-2-carboxamide], the DC50 at SMARCA2 (HT1080 CRISPR knock-in cells) and at SMARCA4 (HT1080 CRISPR knock-in cells) was less than 100 nM in each case. Moreover, the Dmax at SMARCA2 was greater than 90%; at SMARCA4, 70 to 90%.

Turning to `Cc1ncsc1-c1ccc([C@H](C)NC(=O)[C@@H]2C[C@@H](O)CN2C(=O)C(c2cc(CN3CCC(c4ccc5c(c4)-n4c(nc(=O)c6c(Cl)cccc64)C5(C)C)CC3)no2)C(C)C)cc1` (stereo partly drawn) [Compound B62, (2S,4R)-1-(2-(3-((4-(4-chloro-7,7-dimethyl-5-oxo-5,7-dihydroindolo[1,2-a]quinazolin-10-yl)piperidin-1-yl)methyl)isoxazol-5-yl)-3-methylbutanoyl)-4-hydroxy-N-((S)-1-(4-(4-methylthiazol-5-yl)phenyl)ethyl)pyrrolidine-2-carboxamide], the results for the DC50 on SMARCA2 (HT1080 CRISPR knock-in cells) and on SMARCA4 (HT1080 CRISPR knock-in cells) were less than 100 nM and greater than 1000 nM, respectively. Besides, the figures for the Dmax on SMARCA2 and at SMARCA4 were 50 to 69% and less than 50%, respectively.

`Cc1ncsc1-c1ccc([C@H](C)NC(=O)[C@@H]2C[C@@H](O)CN2C(=O)[C@@H](NC(=O)CC2CCC(N3CCC(c4ccc5c(c4)-n4c(nc(=O)c6c(Cl)cccc64)C5(C)C)CC3)CC2)C(C)(C)C)cc1` (stereo partly drawn) [Compound B63, (2S,4R)-1-((S)-2-(2-(4-(4-(4-chloro-7,7-dimethyl-5-oxo-5,7-dihydroindolo[1,2-a]quinazolin-10-yl)piperidin-1-yl)cyclohexyl)acetamido)-3,3-dimethylbutanoyl)-4-hydroxy-N-((S)-1-(4-(4-methylthiazol-5-yl)phenyl)ethyl)pyrrolidine-2-carboxamide]: the DC50 is less than 100 nM at SMARCA2 (HT1080 CRISPR knock-in cells) and 100 to 500 nM at SMARCA4 (HT1080 CRISPR knock-in cells). The Dmax is greater than 90% at SMARCA2 and less than 50% on SMARCA4.

Take `Cc1ncsc1-c1ccc([C@H](C)NC(=O)[C@@H]2C[C@@H](O)CN2C(=O)[C@@H](NC(=O)CCCCn2cc(-c3ccc4c(c3)-n3c(nc(=O)c5c(Cl)cccc53)C4(C)C)cn2)C(C)(C)C)cc1` [Compound B64, (2S,4R)-1-((S)-2-(5-(4-(4-chloro-7,7-dimethyl-5-oxo-5,7-dihydroindolo[1,2-a]quinazolin-10-yl)-1H-pyrazol-1-yl)pentanamido)-3,3-dimethylbutanoyl)-4-hydroxy-N-((S)-1-(4-(4-methylthiazol-5-yl)phenyl)ethyl)pyrrolidine-2-carboxamide]: the figures for the DC50 on SMARCA2 (HT1080 CRISPR knock-in cells) and at SMARCA4 (HT1080 CRISPR knock-in cells) were 100 to 500 nM and greater than 1000 nM, respectively. Moreover, the Dmax at SMARCA2 and on SMARCA4 was less than 50% in each case.

Values taken from patent publication US20260092071A1, “COMPOUNDS AND COMPOSITIONS AS SMARCA2/4 DEGRADERS AND USES THEREOF” (REGENTS OF THE UNIVERSITY OF MICHIGAN, priority 2022, published 2026).
